# Where a SMILES comes first, the peptide text is derived from it. [ ]: non-standard residue; d: D form. The star is where a group is joined. Sta = CC(C)C[C@H](N)[C@@H](O)CC(=O)O; Isovaleryl = CC(C)CC(=O)*
# Tests used:
# Assay type in all cases: biochemical
# [1] = biological target: T1, human brain P-2 enzyme (peak B), aspartic protease identified as cathepsin D (Homo sapiens, UniProt P07339); test: Immunoblot assay of holo-APP 695 degradation by P-2 enzyme (peak B, 15-25 kDa gel filtration region); settings: 100 uM pepstatin A in DMSO; P-2 enzyme 2.54 ug/ml, APP 168 nM, Mes buffer pH 6.5, 26 hr, 37°C; Figure 7
# T1 sequence (P07339 with tags, fused parts or gaps): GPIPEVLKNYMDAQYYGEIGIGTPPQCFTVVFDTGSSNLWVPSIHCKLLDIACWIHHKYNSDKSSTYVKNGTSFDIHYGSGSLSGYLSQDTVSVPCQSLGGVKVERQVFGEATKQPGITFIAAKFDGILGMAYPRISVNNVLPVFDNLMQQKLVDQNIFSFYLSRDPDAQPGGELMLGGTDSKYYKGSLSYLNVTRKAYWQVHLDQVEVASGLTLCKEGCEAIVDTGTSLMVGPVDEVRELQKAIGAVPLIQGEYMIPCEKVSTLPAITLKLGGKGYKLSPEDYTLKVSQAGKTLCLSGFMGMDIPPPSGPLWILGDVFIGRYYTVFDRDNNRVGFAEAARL
# Protocol: Reactions (32 ul) were initiated at 37°C by APP addition to achieve the following initial component conditions: P-2 enzyme (2.54 ug/ml) fraction from the 15-25 kDa region of gel filtration (Figure 6); APP (168 nM), in 96 mM Mes buffer pH 6.5. Reactions were terminated after 26 hr by addition of 15 ul of 3X sample buffer, and subject to immunoblot analysis using a 1/1000 dilution of the rabbit polyclonal antiserum to the APP C-terminus. […] The effect of incubation of APP for 0hr (lanes 2 and 30) and 26 hr (lanes 3 and 28) are also shown. Lanes 6, 10, 14, 17, 21 and 25 contained enzyme alone. Lanes 4, 8, 12, 19, 23, and […] contained the C-100 standard. Prestained molecular weight markers are present in lanes 1 and 29. The 18 and 28 kDa C-terminal product fragments are located with arrows.
# ii) Solubilization. […] Absorbance of column effluent was monitored at 280 nm using a Pharmacia UV-M detector and a Kippen-zonen chart recorder. […] In the initial studies, eluted fractions were monitored for A280 nm, total protein (Bradford assay), and peptidase activity (as decsribed in Examples 2 and 3). […] Fractions were monitored for A 280 nm, total protein (Bradford assay), peptidase activity, and activity for C-terminal processing of recombinant APP. […]
# [2] = biological target: T1, human brain P-2 enzyme (peak B), aspartic protease identified as cathepsin D; test: N-dansyl peptide (SEQ ID NO: 7) peptidase assay with HPLC detection, P-2 enzyme (peak B); settings: pepstatin A 213 uM; P-2 enzyme 17.5 ug/ml, N-Dansyl-peptide 24 uM, pH 5.0, 37 C; Figure 10
# Protocol: (§1) Reactions (30 ul) were initiated at 37 C by enzyme/inhibitor addition thereby achieving the following t=0 component concentrations: Cathepsin D (2.8 ug/ml), or P-2 enzyme from figure 6 (17.5 ug/ml), N-Dansyl-peptide (24 uM), captopril (0.3 mM) in a cocktail buffer comprising 130 mM in each of acetate, Mes and Tris pH 5.0. Samples contained either pepstatin A (213 uM in 3% v/v final methanol) or an equivalent final concentration of methanol only. At 0, 2, 4, 8 and 24hr, reactions were terminated by addition of 12 % (v/v) TFA (10 ul) and subject to HPLC analysis according to example 2 and 3.
# (§2) • i) Incubations. […] Incubation with ion-exchange fractions was performed at 37°C for 24 hrs, after which reactions were terminated by adjusting to 3% (v/v) final in TFA. • ii) HPLC quantification of proteolytic products. HPLC analysis was performed using a Hewlet-Packard HP1090 complete with binary solvent delivery, heated column compartment, and auto injector.
# [3] = biological target: human cathepsin D (human liver, Cal Biochem, catalog # 219401) (Homo sapiens, UniProt P07339); test: N-dansyl peptide (SEQ ID NO: 7) peptidase assay with HPLC detection, cathepsin D; settings: pepstatin A 213 uM; cathepsin D 2.8 ug/ml, N-Dansyl-peptide 24 uM, pH 5.0, 37 C; Figure 10
# Chain of human cathepsin D (human liver, Cal Biochem, catalog # 219401) (P07339 with tags, fused parts or gaps): as above
# Protocol: as §1, §2
compound,measurement,setting,value
CC(C)CC(=O)N[C@H](C(=O)N[C@H](C(=O)N[C@@H](CC(C)C)[C@@H](O)CC(=O)N[C@@H](C)C(=O)N[C@@H](CC(C)C)[C@@H](O)CC(=O)O)C(C)C)C(C)C [pepstatin A] (Isovaleryl-VV[Sta]A[Sta]-OH),Inhibition of peak B APP degrading activity,[1],quantitative inhibition
same,Inhibition of peptidase reaction catalyzed by the P-2 enzyme preparation,[2],inhibited
same,Inhibition of peptidase reaction catalyzed by Cathepsin D,[3],inhibited

# From patent EP0569777A2 (Bayer Corporation, priority 1992, dated 1993)
